# According to ChEMBL document CHEMBL3763031, “Design, synthesis and biological evaluation of monobactams as antibacterial agents against gram-negative bacteria” (2016):
# Legend:
# Salmonella typhi = test: Antibacterial activity against beta-lactamase producing Salmonella typhi H901 after 18 hrs by agar dilution assay; type: functional, Salmonella enterica subsp. enterica serovar Typhi; conditions: Salmonella enterica, H901, 18 h
# Proteus mirabilis = test: Antibacterial activity against beta-lactamase producing Proteus mirabilis 09-1 after 18 hrs by agar dilution assay; type: functional; conditions: 09-1, 18 h
# Proteus vulgaris = test: Antibacterial activity against beta-lactamase producing Proteus vulgaris 29905 after 18 hrs by agar dilution assay; type: functional; conditions: Proteus vulgaris, 29905, 18 h
# Providencia rettgeri = test: Antibacterial activity against Providencia rettgeri 31052 after 18 hrs by agar dilution assay; type: functional; conditions: Providencia rettgeri, 31052, 18 h
# Morganella morganii = test: Antibacterial activity against beta-lactamase producing Morganella morganii 25830 after 18 hrs by agar dilution assay; type: functional; conditions: Morganella morganii, 25830, 18 h
# Serratia marcescens = test: Antibacterial activity against beta-lactamase producing Serratia marcescens 41002 after 18 hrs by agar dilution assay; type: functional; conditions: Serratia marcescens, 41002, 18 h
# Klebsiella aerogenes = test: Antibacterial activity against beta-lactamase producing Enterobacter aerogenes 45102 after 18 hrs by agar dilution assay; type: functional; conditions: Klebsiella aerogenes, 45102, 18 h
# Enterobacter cloacae = test: Antibacterial activity against beta-lactamase producing Enterobacter cloacae 45301 after 18 hrs by agar dilution assay; type: functional; conditions: Enterobacter cloacae, 45301, 18 h
# Escherichia coli [1] = test: Selectivity ratio of MIC for Escherichia coli BL21 to MIC for acrAB and acrEF knock-out Escherichia coli BL21; type: functional
# Klebsiella pneumoniae [2] = test: Antibacterial activity against ESBL negative Klebsiella pneumoniae 7 after 18 hrs by agar dilution assay; type: functional; conditions: Klebsiella pneumoniae, 7, 18 h
# Klebsiella pneumoniae [3] = test: Antibacterial activity against NDM-1 positive Klebsiella pneumoniae BAA-2146 after 18 hrs by agar dilution assay; type: functional; conditions: BAA-2146, 18 h
# Klebsiella pneumoniae [4] = test: Antibacterial activity against ESBL negative Klebsiella pneumoniae 09-8 after 18 hrs by agar dilution assay; type: functional; conditions: 09-8, 18 h
# Pseudomonas aeruginosa [5] = test: Antibacterial activity against BL positive Pseudomonas aeruginosa 09-14 after 18 hrs by agar dilution assay; type: functional; conditions: 09-14, 18 h
# Pseudomonas aeruginosa [6] = test: Antibacterial activity against BL positive Pseudomonas aeruginosa PAO1 after 18 hrs by agar dilution assay; type: functional; conditions: PAO1, 18 h
# Pseudomonas aeruginosa [7] = test: Antibacterial activity against BL positive Pseudomonas aeruginosa 27853 after 18 hrs by agar dilution assay; type: functional; conditions: Pseudomonas aeruginosa, 27853, 18 h
# Klebsiella pneumoniae [8] = test: Antibacterial activity against ESBL positive Klebsiella pneumoniae 09-25 after 18 hrs by agar dilution assay; type: functional; conditions: 09-25, 18 h
# Klebsiella pneumoniae [9] = test: Antibacterial activity against ESBL positive Klebsiella pneumoniae 700603 after 18 hrs by agar dilution assay; type: functional; conditions: Klebsiella pneumoniae, 700603, 18 h
# Escherichia coli [10] = test: Antibacterial activity against ESBL negative Escherichia coli 09-20 after 18 hrs by agar dilution assay; type: functional; conditions: 09-20, 18 h
# Escherichia coli [11] = test: Antibacterial activity against ESBL positive Escherichia coli 09-1 after 18 hrs by agar dilution assay; type: functional; conditions: 09-1, 18 h
# Escherichia coli [12] = test: Antibacterial activity against ESBL negative Escherichia coli 1515 after 18 hrs by agar dilution assay; type: functional; conditions: Escherichia coli, 1515, 18 h
# Escherichia coli [13] = test: Antibacterial activity against ESBL negative Escherichia coli 25922 after 18 hrs by agar dilution assay; type: functional; conditions: Escherichia coli, 25922, 18 h
# Citrobacter freundii = test: Antibacterial activity against beta-lactamase producing Citrobacter freundii 43864 after 18 hrs by agar dilution assay; type: functional; conditions: Citrobacter freundii, 43864, 18 h
# Escherichia coli [14] = test: Antibacterial activity against acrAB and acrEF knock-out Escherichia coli BL21 by microbroth dilution assay; type: functional
# Escherichia coli [15] = test: Antibacterial activity against Escherichia coli BL21 by microbroth dilution assay; type: functional
# Pseudomonas aeruginosa [16] = test: Antimicrobial activity against Pseudomonas aeruginosa PAO1 after 18 hrs by microdilution method in absence of iron; conditions: PAO1, 18 h
# Pseudomonas aeruginosa [17] = test: Antimicrobial activity against Pseudomonas aeruginosa 27853 after 18 hrs by microdilution method in presence of 0.4 uM iron; type: functional
# Pseudomonas aeruginosa [18] = test: Antimicrobial activity against Pseudomonas aeruginosa 27853 after 18 hrs by microdilution method in presence of 40 uM iron; type: functional
# Pseudomonas aeruginosa [19] = test: Antimicrobial activity against Pseudomonas aeruginosa PAO1 after 18 hrs by microdilution method in presence of 0.4 uM iron; type: functional
# Pseudomonas aeruginosa [20] = test: Antimicrobial activity against Pseudomonas aeruginosa 27853 after 18 hrs by microdilution method in presence of 4 uM iron; type: functional
# Pseudomonas aeruginosa [21] = test: Antimicrobial activity against Pseudomonas aeruginosa PAO1 after 18 hrs by microdilution method in presence of 4 uM iron; type: functional
# Pseudomonas aeruginosa [22] = test: Antimicrobial activity against Pseudomonas aeruginosa PAO1 after 18 hrs by microdilution method in presence of 40 uM iron; type: functional
# Pseudomonas aeruginosa [23] = test: microbe, parasite or virus in culture; conditions: Pseudomonas aeruginosa, 27853, 18 h
# Description: Antimicrobial activity against Pseudomonas aeruginosa 27853 after 18 hrs by microdilution method in absence of iron
# [24] = Pseudomonas aeruginosa, 27853, 18 h
Compound,MIC (Salmonella typhi) [µg/mL],MIC (Proteus mirabilis) [µg/mL],MIC (Proteus vulgaris) [µg/mL],MIC (Providencia rettgeri) [µg/mL],MIC (Morganella morganii) [µg/mL],MIC (Serratia marcescens) [µg/mL],MIC (Klebsiella aerogenes) [µg/mL],MIC (Enterobacter cloacae) [µg/mL],MIC (Klebsiella pneumoniae [2]) [µg/mL],MIC (Klebsiella pneumoniae [3]) [µg/mL],MIC (Klebsiella pneumoniae [4]) [µg/mL],MIC (Pseudomonas aeruginosa [5]) [µg/mL],MIC (Pseudomonas aeruginosa [6]) [µg/mL],MIC (Pseudomonas aeruginosa [7]) [µg/mL],MIC (Klebsiella pneumoniae [8]) [µg/mL],MIC (Klebsiella pneumoniae [9]) [µg/mL],MIC (Escherichia coli [10]) [µg/mL],MIC (Escherichia coli [11]) [µg/mL],MIC (Escherichia coli [12]) [µg/mL],MIC (Escherichia coli [13]) [µg/mL],other results
CCN(CC)CC.C[C@H]1[C@H](NC(=O)/C(=N\OCc2ccc(C(=O)N/N=C/c3ccc(O)cc3O)cc2)c2csc(N)n2)C(=O)N1S(=O)(=O)O (relative stereo),8,1,0.5,≤ 0.03,0.12,4,4,4,2,> 64,32,16,16,16,> 64,64,64,64,0.25,8,Selectivity ratio (Escherichia coli [1]): >16; MIC (Citrobacter freundii): 8 µg/mL
CCN(CC)CC.C[C@H]1[C@H](NC(=O)/C(=N\OCc2ccc(C(=O)N/N=C/c3cccs3)cc2)c2csc(N)n2)C(=O)N1S(=O)(=O)O (relative stereo),1,4,0.06,≤ 0.03,1,2,2,1,2,> 64,8,32,64,64,> 64,64,64,64,4,4,Selectivity ratio (Escherichia coli [1]): >16; MIC (Escherichia coli [14]): ≤ 0.06 µg/mL; MIC (Escherichia coli [15]): 2 µg/mL; MIC (Citrobacter freundii): 2 µg/mL
CC1(C)[C@H](NC(=O)/C(=N\OCc2cccnc2)c2csc(N)n2)C(=O)N1S(=O)(=O)O,32,32,0.25,0.03,0.5,8,8,4,4,32,8,> 128,128,> 128,8,64,4,4,16,8,"MIC (Pseudomonas aeruginosa [16]): > 128 µg/mL; MIC (Pseudomonas aeruginosa [17]; [24]): > 128 µg/mL; MIC (Pseudomonas aeruginosa [18]; [24]): > 128 µg/mL; Selectivity ratio (Escherichia coli [1]): >16; MIC (Pseudomonas aeruginosa [19]; PAO1, 18 h): > 128 µg/mL; MIC (Pseudomonas aeruginosa [20]; [24]): > 128 µg/mL; MIC (Pseudomonas aeruginosa [21]; PAO1, 18 h): > 128 µg/mL; MIC (Pseudomonas aeruginosa [22]; PAO1, 18 h): > 128 µg/mL; MIC (Escherichia coli [14]): 0.5 µg/mL; MIC (Escherichia coli [15]): 32 µg/mL; MIC (Citrobacter freundii): 4 µg/mL; MIC (Pseudomonas aeruginosa [23]): > 128 µg/mL"
GENTAMICIN,–,–,–,–,–,–,–,–,–,–,–,–,–,–,–,–,–,–,–,–,MIC (Pseudomonas aeruginosa [17]): 1 µg/mL; MIC (Pseudomonas aeruginosa [18]): 128 µg/mL; MIC (Pseudomonas aeruginosa [19]): 128 µg/mL; MIC (Pseudomonas aeruginosa [20]): 1 µg/mL; MIC (Pseudomonas aeruginosa [21]): 1 µg/mL; MIC (Pseudomonas aeruginosa [22]): 128 µg/mL
CCN(CC)CC.C[C@H]1[C@H](NC(=O)/C(=N\OCc2ccc(C(=O)N/N=C/c3ncc[nH]3)cc2)c2csc(N)n2)C(=O)N1S(=O)(=O)O,1,2,0.125,0.06,0.25,4,2,1,8,> 64,8,32,32,32,> 64,64,64,64,8,4,MIC (Escherichia coli [14]): ≤ 0.06 µg/mL; MIC (Escherichia coli [15]): 1 µg/mL; MIC (Citrobacter freundii): 2 µg/mL
CCN(CC)CC.C[C@H]1[C@H](NC(=O)/C(=N\OCc2ccc(C(=O)N/N=C/c3ccccc3O)cc2)c2csc(N)n2)C(=O)N1S(=O)(=O)O (relative stereo),0.5,8,0.25,≤ 0.03,2,8,2,2,2,> 64,16,4,4,8,> 64,> 64,64,64,2,4,"MIC (Pseudomonas aeruginosa [16]): > 128 µg/mL; MIC (Pseudomonas aeruginosa [17]; [24]): 128 µg/mL; MIC (Pseudomonas aeruginosa [18]; [24]): > 128 µg/mL; Selectivity ratio (Escherichia coli [1]): >16; MIC (Pseudomonas aeruginosa [19]; PAO1, 18 h): 128 µg/mL; MIC (Pseudomonas aeruginosa [20]; [24]): 128 µg/mL; MIC (Pseudomonas aeruginosa [21]; PAO1, 18 h): 128 µg/mL; MIC (Pseudomonas aeruginosa [22]; PAO1, 18 h): > 128 µg/mL; MIC (Escherichia coli [14]): 2 µg/mL; MIC (Escherichia coli [15]): 64 µg/mL; MIC (Citrobacter freundii): 4 µg/mL; MIC (Pseudomonas aeruginosa [23]): 128 µg/mL"
CC1(C)[C@H](NC(=O)/C(=N\OCc2ccccn2)c2csc(N)n2)C(=O)N1S(=O)(=O)O,32,2,0.125,0.06,0.5,8,8,1,4,16,4,64,32,64,32,> 128,4,4,2,2,"MIC (Pseudomonas aeruginosa [16]): 64 µg/mL; MIC (Pseudomonas aeruginosa [17]; [24]): 128 µg/mL; MIC (Pseudomonas aeruginosa [18]; [24]): 128 µg/mL; Selectivity ratio (Escherichia coli [1]): >16; MIC (Pseudomonas aeruginosa [19]; PAO1, 18 h): 64 µg/mL; MIC (Pseudomonas aeruginosa [20]; [24]): 128 µg/mL; MIC (Pseudomonas aeruginosa [21]; PAO1, 18 h): 128 µg/mL; MIC (Pseudomonas aeruginosa [22]; PAO1, 18 h): 64 µg/mL; MIC (Escherichia coli [14]): ≤ 0.06 µg/mL; MIC (Escherichia coli [15]): 2 µg/mL; MIC (Citrobacter freundii): 2 µg/mL; MIC (Pseudomonas aeruginosa [23]): 128 µg/mL"
